How the values were obtained:
Assay in all cases: relative viability (nuclei count vs DMSO), 5 days (fraction); higher = more cells survive
[1] = compound: CC(O)(CS(=O)(=O)c1ccc(F)cc1)C(=O)Nc1ccc(C#N)c(C(F)(F)F)c1 [Bicalutamide] + N=C(N)NC(=N)NCCc1ccccc1 [Phenformin] (partner 250 µM)
In short: (§1)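 Relative viability is defined as nuclei in treated wells over nuclei in vehicle wells. Duplicate plates were run and medians reported. Lung cancer cell lines in 1536-well plates were dosed by pin tool one day after seeding, with one drug or with a fixed anchor-drug dose plus five library-drug doses (not always all listed) in √10 steps, and nuclei were counted after 5 days.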

[2] = compound: C(C(=O)C(=O)O)Br [Bromopyruvate] + Cc1nc(Nc2ncc(C(=O)Nc3c(C)cccc3Cl)s2)cc(N2CCN(CCO)CC2)n1 [Dasatinib] (partner 0.075 µM)
In short: as §1

[3] = compound: CC(O)(CS(=O)(=O)c1ccc(F)cc1)C(=O)Nc1ccc(C#N)c(C(F)(F)F)c1 [Bicalutamide] + COc1cc2c(Oc3ccc(NC(=O)C4(C(=O)Nc5ccc(F)cc5)CC4)cc3F)ccnc2cc1OCCCN1CCOCC1 [Foretinib] (partner 0.25 µM)
In short: as §1

[4] = compound: C(C(=O)C(=O)O)Br [Bromopyruvate] + Cc1nc(NC(=O)N2CCC[C@H]2C(N)=O)sc1-c1ccnc(C(C)(C)C(F)(F)F)c1 [Alpelisib] (partner 2 µM)
In short: as §1

Cell Line: NCI-H2405
- relative viability ([1]; first compound 0.08 µM): 0.436
- relative viability ([1]; first compound 0.253 µM): 0.358
- relative viability ([1]; first compound 0.8 µM): 0.468
- relative viability ([1]; first compound 2.53 µM): 0.415
- relative viability ([2]; first compound 1 µM): 0.242
- relative viability ([2]; first compound 3.162 µM): 0.218
- relative viability ([2]; first compound 10 µM): 0.209
- relative viability ([2]; first compound 31.62 µM): 0.19
- relative viability ([2]; first compound 100 µM): 0.231
- relative viability ([3]; first compound 0.08 µM): 1.04
- relative viability ([3]; first compound 0.253 µM): 1.03
- relative viability ([3]; first compound 0.8 µM): 1.11
- relative viability ([3]; first compound 2.53 µM): 1.01
- relative viability ([4]; first compound 1 µM): 0.773
- relative viability ([4]; first compound 3.162 µM): 0.779
- relative viability ([4]; first compound 10 µM): 0.89
- relative viability ([4]; first compound 31.62 µM): 0.583
- relative viability ([4]; first compound 100 µM): 0.737

Cell Line: NCI-H3122
- relative viability ([1]; first compound 0.08 µM): 0.46
- relative viability ([1]; first compound 0.253 µM): 0.416
- relative viability ([1]; first compound 0.8 µM): 0.378
- relative viability ([1]; first compound 2.53 µM): 0.369
- relative viability ([2]; first compound 1 µM): 0.936
- relative viability ([2]; first compound 3.162 µM): 0.871
- relative viability ([2]; first compound 10 µM): 1.22
- relative viability ([2]; first compound 31.62 µM): 0.765
- relative viability ([2]; first compound 100 µM): 0.882
- relative viability ([3]; first compound 0.08 µM): 1.02
- relative viability ([3]; first compound 0.253 µM): 0.9
- relative viability ([3]; first compound 0.8 µM): 0.996
- relative viability ([3]; first compound 2.53 µM): 1.01
- relative viability ([4]; first compound 1 µM): 0.841
- relative viability ([4]; first compound 3.162 µM): 0.831
- relative viability ([4]; first compound 10 µM): 0.859
- relative viability ([4]; first compound 31.62 µM): 0.729
- relative viability ([4]; first compound 100 µM): 0.718

Cell Line: PC-3 [JPC-3]
- relative viability ([1]; first compound 0.08 µM): 0.46
- relative viability ([1]; first compound 0.253 µM): 0.472
- relative viability ([1]; first compound 0.8 µM): 0.505
- relative viability ([1]; first compound 2.53 µM): 0.505
- relative viability ([2]; first compound 1 µM): 1.06
- relative viability ([2]; first compound 3.162 µM): 1.03
- relative viability ([2]; first compound 10 µM): 1.06
- relative viability ([2]; first compound 31.62 µM): 1.02
- relative viability ([2]; first compound 100 µM): 1.1
- relative viability ([3]; first compound 0.08 µM): 1.01
- relative viability ([3]; first compound 0.253 µM): 1.02
- relative viability ([3]; first compound 0.8 µM): 1.07
- relative viability ([3]; first compound 2.53 µM): 1.11
- relative viability ([4]; first compound 1 µM): 1.06
- relative viability ([4]; first compound 3.162 µM): 1.01
- relative viability ([4]; first compound 10 µM): 1.01
- relative viability ([4]; first compound 31.62 µM): 1.06
- relative viability ([4]; first compound 100 µM): 1.03

Cell Line: PC-14
- relative viability ([1]; first compound 0.08 µM): 0.701
- relative viability ([1]; first compound 0.253 µM): 0.541
- relative viability ([1]; first compound 0.8 µM): 0.96
- relative viability ([1]; first compound 2.53 µM): 0.527
- relative viability ([2]; first compound 1 µM): 0.307
- relative viability ([2]; first compound 3.162 µM): 0.328
- relative viability ([2]; first compound 10 µM): 0.284
- relative viability ([2]; first compound 31.62 µM): 0.272
- relative viability ([2]; first compound 100 µM): 0.191
- relative viability ([3]; first compound 0.08 µM): 0.951
- relative viability ([3]; first compound 0.253 µM): 0.905
- relative viability ([3]; first compound 0.8 µM): 1.03
- relative viability ([3]; first compound 2.53 µM): 0.965
- relative viability ([4]; first compound 1 µM): 1.02
- relative viability ([4]; first compound 3.162 µM): 1.01
- relative viability ([4]; first compound 10 µM): 0.93
- relative viability ([4]; first compound 31.62 µM): 0.966
- relative viability ([4]; first compound 100 µM): 0.964

Cell Line: RERF-LC-KJ
- relative viability ([1]; first compound 0.08 µM): 0.406
- relative viability ([1]; first compound 0.253 µM): 0.396
- relative viability ([1]; first compound 0.8 µM): 0.431
- relative viability ([1]; first compound 2.53 µM): 0.336
- relative viability ([2]; first compound 1 µM): 0.882
- relative viability ([2]; first compound 3.162 µM): 0.797
- relative viability ([2]; first compound 10 µM): 1.04
- relative viability ([2]; first compound 31.62 µM): 0.878
- relative viability ([2]; first compound 100 µM): 0.73
- relative viability ([3]; first compound 0.08 µM): 0.814
- relative viability ([3]; first compound 0.253 µM): 0.927
- relative viability ([3]; first compound 0.8 µM): 1.04
- relative viability ([3]; first compound 2.53 µM): 0.889
- relative viability ([4]; first compound 1 µM): 0.688
- relative viability ([4]; first compound 3.162 µM): 1.09
- relative viability ([4]; first compound 10 µM): 0.825
- relative viability ([4]; first compound 31.62 µM): 0.773
- relative viability ([4]; first compound 100 µM): 0.82

Cell Line: SK-LU-1
- relative viability ([1]; first compound 0.08 µM): 0.571
- relative viability ([1]; first compound 0.253 µM): 0.519
- relative viability ([1]; first compound 0.8 µM): 0.637
- relative viability ([1]; first compound 2.53 µM): 0.48
- relative viability ([2]; first compound 1 µM): 0.171
- relative viability ([2]; first compound 3.162 µM): 0.153
- relative viability ([2]; first compound 10 µM): 0.19
- relative viability ([2]; first compound 31.62 µM): 0.171
- relative viability ([2]; first compound 100 µM): 0.165
- relative viability ([3]; first compound 0.08 µM): 0.99
- relative viability ([3]; first compound 0.253 µM): 0.785
- relative viability ([3]; first compound 0.8 µM): 1.01
- relative viability ([3]; first compound 2.53 µM): 0.78
- relative viability ([4]; first compound 1 µM): 1.09
- relative viability ([4]; first compound 3.162 µM): 1.05
- relative viability ([4]; first compound 10 µM): 0.939
- relative viability ([4]; first compound 31.62 µM): 0.874
- relative viability ([4]; first compound 100 µM): 0.86

Cell Line: SK-MES-1
- relative viability ([1]; first compound 0.08 µM): 0.726
- relative viability ([1]; first compound 0.253 µM): 0.654
- relative viability ([1]; first compound 0.8 µM): 0.728
- relative viability ([1]; first compound 2.53 µM): 0.617
- relative viability ([2]; first compound 1 µM): 0.424
- relative viability ([2]; first compound 3.162 µM): 0.332
- relative viability ([2]; first compound 10 µM): 0.345
- relative viability ([2]; first compound 31.62 µM): 0.339
- relative viability ([2]; first compound 100 µM): 0.417
- relative viability ([3]; first compound 0.08 µM): 0.832
- relative viability ([3]; first compound 0.253 µM): 0.829
- relative viability ([3]; first compound 0.8 µM): 0.979
- relative viability ([3]; first compound 2.53 µM): 1.03
- relative viability ([4]; first compound 1 µM): 0.842
- relative viability ([4]; first compound 3.162 µM): 0.878
- relative viability ([4]; first compound 10 µM): 0.915
- relative viability ([4]; first compound 31.62 µM): 0.868
- relative viability ([4]; first compound 100 µM): 1.01

Cell Line: SW 1573
- relative viability ([1]; first compound 0.08 µM): 0.413
- relative viability ([1]; first compound 0.8 µM): 0.377
- relative viability ([1]; first compound 2.53 µM): 0.366
- relative viability ([2]; first compound 1 µM): 0.598
- relative viability ([2]; first compound 3.162 µM): 0.684
- relative viability ([2]; first compound 10 µM): 0.492
- relative viability ([2]; first compound 31.62 µM): 0.276
- relative viability ([2]; first compound 100 µM): 0.0416
- relative viability ([3]; first compound 0.08 µM): 0.929
- relative viability ([3]; first compound 0.253 µM): 0.71
- relative viability ([3]; first compound 0.8 µM): 1.08
- relative viability ([3]; first compound 2.53 µM): 0.778
- relative viability ([4]; first compound 1 µM): 0.761
- relative viability ([4]; first compound 3.162 µM): 0.84
- relative viability ([4]; first compound 10 µM): 0.876
- relative viability ([4]; first compound 31.62 µM): 0.678
- relative viability ([4]; first compound 100 µM): 0.761

Source: the supplement of paper PMC10307832
